Results reported in patent US6803501B2 (Monsanto Technology, LLC, priority 2000, dated 2004).

What was measured:
[1] = system: native EPSPS from E. coli (wild type); details: read-out: apparent Ki for glyphosate; cited from earlier work
[2] = system: E. coli EPSPS glyphosate-resistant isolate, single amino acid substitution of an alanine for the glycine at position 96; details: read-out: apparent Ki for glyphosate; alanine for glycine at position 96; cited from earlier work
[3] = system: E. coli SR481 cells expressing E. indica EPSP synthase (tolerant vs sensitive biotype); test: growth of transgenic E. coli aroA- cells expressing E. indica EPSPS in the presence of glyphosate (FIG. 3); format: cell-based; details: M9 minimal media, 0.0, 0.5, 1.5 or 5.0 mM glyphosate, 0-48 hours, vs sensitive biotype enzyme
Experimental: The EPSP synthase mature protein-coding regions isolated from the glyphosate tolerant and glyphosate sensitive E. indica biotypes, can be directly compared for their ability to confer tolerance to glyphosate in transgenic hosts.
These sequences are employed in RT-PCR reactions to generate expression cassettes suitable for cloning into pMON45337 cut with the restriction enzymes Nde1 and EcoR1. RT-PCR reactions are performed with total RNAs extracted from frozen crown samples using the RNeasy Plant Mini Kit (cat.#74904, Qiagen Inc., Valencia, Calif.) per manufacturer's instructions. Oligo dT-primed first-strand cDNAs are prepared from 5 μg samples of total RNA using the Superscript Pre-Amplification System (cat.#18089-011, Life Technologies, Rockville, Md.) per manufacturer's instructions. Two μl of first-strand cDNA are then used to generate E. indica EPSP synthase expression cassettes via polymerase chain reaction. The oligonucleotides are added in 50 μl RT-PCR reactions at a final concentration of 0.4 μM. PCR amplifications are then performed using the Expand High Fidelity PCR System (cat.#1 732 641, Roche Molecular Biochemicals, Indianapolis, Ind.) per manufacturer's instructions, using a thermal profile of 94° C. for 30 seconds, then 57° C. for 2 minutes, followed by 75° C. for 3 minutes, for a total of 35 cycles. […]

For `O=C(O)CNCP(=O)(O)O` [glyphosate, N-phosphonomethylglycine], the Ki [1] is listed as 0.5 µM, the Ki [2] is listed as 4000 µM and the “increase in tolerance to glyphosate due to EPSP synthase from tolerant E. indica biotype” value [3] is listed as “approximately three-fold increase in tolerance to glyphosate”.
